Reference: US6639058B2, “Method of dissolving preformed β-amyloid peptide fibrils in vitro by poly-lysine” (priority 2001, dated 2003)

What was measured:
[1] = target: T1, preformed βA25-35 fibrils (Homo sapiens, UniProt P05067); assay: Electron microscopy analysis of the ability to dissolve preformed βA fibrils in vitro (βA25-35); type: biochemical; conditions: for ability to dissolve preformed βA25-35 fibrils: 10 μl tested compound mixed with 10 μl preformed fibrils, negative-staining electron microscopy immediately performed, Poly-L-Lysine 25 mg/ml, Polyethylene glycol 10 mg/ml, L-Lysine 1 M
T1 construct: 0.5 mg/ml for βA25-35 prepared in water or in PBS
Protocol: (§1) Aliquots of βA at a concentration of 1.5 mg/ml for both βA1-40 and βA1-42 and 0.5 mg/ml for βA25-35 prepared in water or in PBS, were incubated for 5 days at 37° C. At the end of the incubation period, 10 μl of βA solution were mixed with 10 μl of water for negative-staining electron microscopy analysis.
(§2) All compounds used to test the ability to dissolve preformed βA fibrils in vitro: Poly-L-Lysine, Polyethylene glycol and L-Lysine, were prepared in water and at a concentration of 25 mg/ml, 10 mg/ml and 1 M respectively. Then, 10 μl of tested compound were mixed with 10 μl of water for negative-staining electron microscopy analysis.
(§3) In order to evaluate the ability of compounds to dissolve preformed βA fibrils in vitro, 10 μl of tested compound were mixed with 10 μl of preformed βA fibrils and the negative-staining electron microscopy analysis was immediately performed.
(§4) Samples of tested compound, βA with or without tested compound were placed on carbon formar-coated 200-mesh nickel grids. The grids were stained for 5 minutes with 1% phosphotungstic acid and visualized on a Philips EM 401 electron microscope at 80 kV.

preformed βA1-40 fibrils = target: T2, preformed βA1-40 fibrils (Homo sapiens, UniProt P05067); assay: Electron microscopy analysis of the ability to dissolve preformed βA fibrils in vitro (βA1-40); type: biochemical; conditions: data not shown
T2 construct: 1.5 mg/ml for both βA1-40 and βA1-42
T2 sequence (P05067 672-711): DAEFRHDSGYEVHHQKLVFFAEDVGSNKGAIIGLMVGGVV
Protocol: as §1, §2, §3, §4

Cl.NCCCC[C@H](N)C(=O)O [L-Lysine, L-Lysine, monohydrochloride, reference compound]
ability to dissolve preformed βA25-35 fibrils [1]: not effective

Poly-L-Lysine, hydrobomide
potential to dissolve preformed βA1-40 fibrils (preformed βA1-40 fibrils): also observed | ability to dissolve preformed βA25-35 fibrils [1]: completely dissolved | speed of efficiency in dissolving preformed βA fibrils ([1]; in vitro, electron microscopy immediately after mixing): instantaneous
